As a reminder, the IC50 is the point on the concentration scale where inhibition reaches its midpoint. High values mean weaker potency in that assay, low ones greater potency in that assay.

Counter-ions that a name gives are not always drawn. Like-named read-outs stand apart in the source and are kept apart here.

For one series, the target named is CYP3A4 (Homo sapiens, UniProt P08684).
In series [1] the target is T1, human CYP2C19 (Homo sapiens, UniProt P33261). The experiment in a line: biochemical.
T1 sequence (P33261 whole entry): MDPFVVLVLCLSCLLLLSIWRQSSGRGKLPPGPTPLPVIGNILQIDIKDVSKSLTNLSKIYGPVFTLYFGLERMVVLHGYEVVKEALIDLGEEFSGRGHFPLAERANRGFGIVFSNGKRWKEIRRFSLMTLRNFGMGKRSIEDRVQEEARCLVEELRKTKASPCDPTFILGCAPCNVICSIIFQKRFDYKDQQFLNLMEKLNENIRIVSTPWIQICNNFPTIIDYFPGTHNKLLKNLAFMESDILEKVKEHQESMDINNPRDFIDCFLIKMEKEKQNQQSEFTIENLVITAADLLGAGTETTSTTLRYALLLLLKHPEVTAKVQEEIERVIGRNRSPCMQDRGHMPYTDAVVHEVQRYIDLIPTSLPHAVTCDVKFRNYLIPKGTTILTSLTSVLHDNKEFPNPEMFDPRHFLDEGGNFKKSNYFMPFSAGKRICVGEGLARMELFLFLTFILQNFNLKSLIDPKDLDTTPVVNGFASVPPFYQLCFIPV
The target in series [2] is T2, human CYP2C9 (Homo sapiens, UniProt P11712).
T2 sequence (P11712 whole entry): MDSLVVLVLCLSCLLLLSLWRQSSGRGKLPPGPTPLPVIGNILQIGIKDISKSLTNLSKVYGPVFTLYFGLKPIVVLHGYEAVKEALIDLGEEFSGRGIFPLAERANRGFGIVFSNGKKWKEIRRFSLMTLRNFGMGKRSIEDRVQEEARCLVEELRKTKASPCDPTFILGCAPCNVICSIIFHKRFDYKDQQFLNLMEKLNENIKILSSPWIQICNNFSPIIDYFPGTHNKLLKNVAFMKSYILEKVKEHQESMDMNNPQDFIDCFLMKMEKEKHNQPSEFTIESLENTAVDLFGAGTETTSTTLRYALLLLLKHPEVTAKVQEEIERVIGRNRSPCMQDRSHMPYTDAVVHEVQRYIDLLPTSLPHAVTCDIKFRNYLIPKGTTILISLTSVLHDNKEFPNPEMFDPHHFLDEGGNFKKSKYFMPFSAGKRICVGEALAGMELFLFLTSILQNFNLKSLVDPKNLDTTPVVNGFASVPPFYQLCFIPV
In series [3] the target is Photinus pyralis (firefly) luciferase (Photinus pyralis, UniProt P08659). The experiment in a line: biochemical. Type of series: biochemical.
Chain of Photinus pyralis (firefly) luciferase (P08659 whole entry): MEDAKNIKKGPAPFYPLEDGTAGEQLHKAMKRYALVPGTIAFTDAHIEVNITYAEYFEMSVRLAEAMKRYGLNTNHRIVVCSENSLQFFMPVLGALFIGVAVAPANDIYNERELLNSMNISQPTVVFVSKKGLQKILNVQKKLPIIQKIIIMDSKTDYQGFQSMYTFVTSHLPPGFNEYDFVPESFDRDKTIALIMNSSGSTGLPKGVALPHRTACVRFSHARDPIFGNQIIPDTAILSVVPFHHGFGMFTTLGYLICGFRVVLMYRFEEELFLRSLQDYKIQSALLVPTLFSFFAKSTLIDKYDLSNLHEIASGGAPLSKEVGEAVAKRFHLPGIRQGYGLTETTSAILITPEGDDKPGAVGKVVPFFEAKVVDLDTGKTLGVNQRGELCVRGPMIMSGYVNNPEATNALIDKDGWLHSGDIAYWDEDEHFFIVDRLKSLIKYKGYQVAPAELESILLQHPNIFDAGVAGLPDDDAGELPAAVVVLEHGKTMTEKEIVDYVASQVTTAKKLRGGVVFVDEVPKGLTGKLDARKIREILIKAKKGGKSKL
The target of series [4] is T3, human CYP1A2 (Homo sapiens, UniProt P05177).
T3 sequence (P05177 1-516): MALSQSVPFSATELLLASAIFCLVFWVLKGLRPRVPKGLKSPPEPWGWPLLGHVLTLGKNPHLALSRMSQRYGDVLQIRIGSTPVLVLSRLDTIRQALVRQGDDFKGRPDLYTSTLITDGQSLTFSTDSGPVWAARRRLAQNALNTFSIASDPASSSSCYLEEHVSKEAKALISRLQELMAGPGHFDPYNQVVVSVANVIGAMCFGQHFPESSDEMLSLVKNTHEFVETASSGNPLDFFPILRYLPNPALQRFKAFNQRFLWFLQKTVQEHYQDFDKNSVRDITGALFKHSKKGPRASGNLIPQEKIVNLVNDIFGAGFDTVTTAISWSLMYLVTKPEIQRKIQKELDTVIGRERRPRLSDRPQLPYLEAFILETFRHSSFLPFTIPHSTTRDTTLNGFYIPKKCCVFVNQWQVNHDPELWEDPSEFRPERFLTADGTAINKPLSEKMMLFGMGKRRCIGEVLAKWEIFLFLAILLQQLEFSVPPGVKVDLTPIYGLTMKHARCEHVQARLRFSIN

The target of series [5] is T4, human CYP2D6 (Homo sapiens, UniProt P10635). The experiment in a line: biochemical.
T4 sequence (P10635 whole entry): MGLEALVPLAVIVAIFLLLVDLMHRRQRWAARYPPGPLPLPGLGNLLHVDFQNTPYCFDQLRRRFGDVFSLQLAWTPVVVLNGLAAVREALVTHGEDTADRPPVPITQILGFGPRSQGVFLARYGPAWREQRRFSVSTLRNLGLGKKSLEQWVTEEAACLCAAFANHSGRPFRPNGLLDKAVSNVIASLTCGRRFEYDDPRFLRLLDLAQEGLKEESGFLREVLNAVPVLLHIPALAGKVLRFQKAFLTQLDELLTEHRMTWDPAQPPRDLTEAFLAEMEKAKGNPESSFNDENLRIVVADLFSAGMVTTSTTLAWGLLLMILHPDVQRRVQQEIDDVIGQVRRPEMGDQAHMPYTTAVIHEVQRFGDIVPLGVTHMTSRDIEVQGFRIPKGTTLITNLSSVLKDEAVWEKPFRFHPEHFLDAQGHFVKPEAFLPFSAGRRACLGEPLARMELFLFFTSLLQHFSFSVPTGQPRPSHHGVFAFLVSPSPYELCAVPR
The target of series [6] is T1, human CYP2C19. The conditions noted are these: for CYP2C19 Efficacy (in parenthesis): human.
Series [7] has as its target T4, human CYP2D6. The conditions noted are these: human.
The target of series [8] is T2, human CYP2C9. The experiment in a line: biochemical.
Series [9] addresses T3, human CYP1A2. Put plainly: biochemical.
Setting [10] is: CYP2C19 IC50 (half-maximal inhibitory concentration).
The mark [11] stands for this setting: CYP2D6 IC50 (half-maximal inhibitory concentration).

Chain of CYP3A4 (P08684 whole entry): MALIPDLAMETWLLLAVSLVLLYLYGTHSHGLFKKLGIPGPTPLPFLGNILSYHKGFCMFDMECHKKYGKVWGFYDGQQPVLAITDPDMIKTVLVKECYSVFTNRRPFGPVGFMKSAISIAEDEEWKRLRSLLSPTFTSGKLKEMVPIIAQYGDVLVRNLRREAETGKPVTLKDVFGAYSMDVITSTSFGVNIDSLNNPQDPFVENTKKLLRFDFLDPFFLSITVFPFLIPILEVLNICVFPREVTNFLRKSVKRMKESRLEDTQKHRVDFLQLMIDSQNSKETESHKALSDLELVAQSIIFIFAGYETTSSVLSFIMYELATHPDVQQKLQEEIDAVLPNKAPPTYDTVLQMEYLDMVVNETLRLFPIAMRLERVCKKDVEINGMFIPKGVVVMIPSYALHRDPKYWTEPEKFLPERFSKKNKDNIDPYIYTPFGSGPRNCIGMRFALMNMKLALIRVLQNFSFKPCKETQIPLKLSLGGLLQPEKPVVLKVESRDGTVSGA

Regarding `CN1CCC(N(Cc2ccccc2)c2ccccc2)CC1` [Bamipine], the “CYP3A4 IC50” value on CYP3A4 is recorded as “Inactive”. For the same compound, the IC50 worked out at 36800 nM on human CYP2C19 [1] and 380 nM at human CYP2D6 [5]. On human CYP2C9 [2], the “CYP2C9 IC50” value is reported as “Inactive”. The “Luciferase IC50” value in series [3] was “Inactive”. On human CYP1A2 [4], the “CYP1A2 IC50” value was “Inactive”.

As to `CN(C)CCCSc1ccccc1NC(=O)/C=C/c1ccccc1` [Cinanserin], on CYP3A4, the “CYP3A4 IC50 (half-maximal inhibitory concentration)” value is “Inactive”. For the same compound, the “CYP2C19 Efficacy (in parenthesis)” value at human CYP2C19 [6] is listed as 29.59 ± 16.13 (-78 ± 38) %. The figures for the IC50 against human CYP2C19 [1] (setting [10]) and on human CYP2D6 [5] (setting [11]) were 29600 nM and 520 nM, respectively. The “CYP2C9 IC50 (half-maximal inhibitory concentration)” value on human CYP2C9 [2] is reported as “Inactive”. Further, in [3], the “Luciferase IC50 (half-maximal inhibitory concentration)” value is reported as “Inactive”. Besides, at human CYP1A2 [4], the “CYP1A2 IC50 (half-maximal inhibitory concentration)” value is on record as “Inactive”. For the same compound, the “CYP2D6 Efficacy (in parenthesis)” value at human CYP2D6 [7] is on record as 0.52 ± 0.22 (-96 ± 14) %.

In the case of `Clc1ccccc1C(c1ccccc1)(c1ccccc1)n1ccnc1` [Clotrimazole], the “CYP3A4 Efficacy (in parenthesis)” value at CYP3A4 was 0.02 ± 0.01 (-96 ± 6) %. In addition, at human CYP2C19 [6], the “CYP2C19 Efficacy (in parenthesis)” value is 3.88 ± 0.66 (-140 ± 14) %. The results for the IC50 on human CYP2C19 [1] (setting [10]), against human CYP2C9 [8] (CYP2C9 IC50 (half-maximal inhibitory concentration)) and against human CYP2D6 [5] (setting [11]) were 3880 nM, 1140 nM and 46200 nM, respectively. Also, the “CYP2C9 Efficacy (in parenthesis)” value on human CYP2C9 [2] (human) was 1.14 ± 0.44 (-107 ± 6) %. The “Luciferase IC50 (half-maximal inhibitory concentration)” value in [3] was “Inactive”. On human CYP1A2 [4] (human), the “CYP1A2 Efficacy (in parenthesis)” value is 9.92 ± 2.76 (-108 ± 12) %. For the same compound, the “CYP2D6 Efficacy (in parenthesis)” value on human CYP2D6 [7] was 46.25 ± 14.89 (-110 ± 18) %.

With `NC(=O)C(c1ccccc1)(c1ccccc1)[C@@H]1CCN(CCc2ccc3c(c2)CCO3)C1` [Darifenacin hydrobromide], the “CYP3A4 IC50 (half-maximal inhibitory concentration)” value at CYP3A4 is on record as “Inactive”. For the same compound, the “CYP2C19 IC50 (half-maximal inhibitory concentration)” value at human CYP2C19 [6] is recorded as “Inactive”. In addition, at human CYP2C9 [2], the “CYP2C9 IC50 (half-maximal inhibitory concentration)” value was “Inactive”. Moreover, the “Luciferase IC50 (half-maximal inhibitory concentration)” value in series [3] was “Inactive”. In addition, on human CYP1A2 [4], the “CYP1A2 IC50 (half-maximal inhibitory concentration)” value is recorded as “Inactive”. Also, the IC50 on human CYP2D6 [5] (setting [11]) worked out at 410 nM. Further, the “CYP2D6 Efficacy (in parenthesis)” value at human CYP2D6 [7] was 0.41 ± 0.07 (-99 ± 4) %.

For `OC(CCCN1CCCCC1)(c1ccccc1)c1ccccc1` [Diphenidol], the “CYP3A4 IC50 (half-maximal inhibitory concentration)” value at CYP3A4 is on record as “Inactive”. Also, the IC50 was 32700 nM at human CYP2C19 [1] (setting [10]) and 90 nM against human CYP2D6 [5] (setting [11]). Also, the “CYP2C9 IC50 (half-maximal inhibitory concentration)” value at human CYP2C9 [2] is “Inactive”. Further, in [3], the “Luciferase IC50 (half-maximal inhibitory concentration)” value is listed as “Inactive”. In addition, the “CYP1A2 IC50 (half-maximal inhibitory concentration)” value on human CYP1A2 [4] was “Inactive”.

Consider `CC(Cc1ccccc1)N(C)Cc1ccco1` (stereo not drawn) [Furfenorex], for which the “CYP3A4 IC50” value on CYP3A4 is given as “Inactive”. The IC50 at human CYP2C19 [1] (CYP2C19 IC50) came out at 6650 nM; against human CYP2D6 [5] (CYP2D6 IC50), 850 nM. The “CYP2C9 IC50” value at human CYP2C9 [2] is “Inactive”. The “Luciferase IC50” value in series [3] is “Inactive”. The “CYP1A2 IC50” value on human CYP1A2 [4] was “Inactive”.

On to `CN1CCCC(CC2c3ccccc3Sc3ccccc32)C1` (stereo not drawn) [Metixene hydrochloride], for which, at CYP3A4, the “CYP3A4 IC50 (half-maximal inhibitory concentration)” value was “Inactive”. The half-inhibitory concentration (IC50) at human CYP2C19 [1] (setting [10]) was 7760 nM; at human CYP2D6 [5] (setting [11]), 440 nM. The “CYP2C9 IC50 (half-maximal inhibitory concentration)” value on human CYP2C9 [2] was “Inactive”. Besides, in [3], the “Luciferase IC50 (half-maximal inhibitory concentration)” value is recorded as “Inactive”. Further, the “CYP1A2 IC50 (half-maximal inhibitory concentration)” value on human CYP1A2 [4] is recorded as “Inactive”.

For `Cc1nc2n(c(=O)c1CCN1CCC(C(=O)c3ccc(F)cc3)CC1)CCS2` [Setoperone], on CYP3A4, the “CYP3A4 IC50” value was “Inactive”. Moreover, the “CYP2C19 IC50” value at human CYP2C19 [6] is “Inactive”. Also, the figures for the IC50 on human CYP1A2 [9], against human CYP2C9 [8] and against human CYP2D6 [5] were 32300 ± 4120 nM, 27200 ± 16600 nM and 480 ± 80 nM, respectively. Further, in series [3], the “Luciferase IC50” value was “Inactive”.

Consider `COC1CC(=C(c2cccs2)c2cccs2)C[N+](C)(C)C1` (stereo not drawn) [Timepidium bromide], for which the “CYP3A4 IC50” value on CYP3A4 is on record as “Inactive”. Moreover, the “CYP2C19 IC50” value on human CYP2C19 [6] was “Inactive”. In addition, the “CYP2C9 IC50” value at human CYP2C9 [2] was “Inactive”. In addition, in series [3], the “Luciferase IC50” value is “Inactive”. Moreover, at human CYP1A2 [4], the “CYP1A2 IC50” value is “Inactive”. For the same compound, the midpoint of inhibition on human CYP2D6 [5] (CYP2D6 IC50), the IC50, lay at 290 nM.

(Values after paper PMC12155096 (International Journal of Molecular Sciences, 2025).)
